This assay deals with GMPPNP-loaded KRAS G12C (Homo sapiens, UniProt P01116, G12C). The assay is described as follows: KRAS G12C RAF Disruption Assay (HTRF). It counts as biochemical. As to conditions: recombinant GMPPNP-loaded KRAS G12C (5 nM), 20 min with compound; GST-RAF1 RBD (9 nM); HTRF signal; read-out: KRASG12C RAF Disruption Assay (IC50). Here is the method: KRAS^G12C RAF Disruption Assay
This is a functional assay that measures activity of compounds against KRAS-G12C^(ON), i.e., the active form of KRAS G12C. Recombinant GMPPNP-loaded KRAS G12C (5 nM) was treated with compound at room temperature for 20 minutes in assay buffer (50 mM Tris pH 7.5, 100 mM NaCl, 1 mM MgCl2, 1 mM DTT, 100ug/ml BSA). Recombinant GST-RAF1 RBD (9 nM) was added, and the reaction mixture was incubated for 20 minutes. SA-Tb (0.25 nM) was added, and the reaction mixture was incubated for 3 hours. HTRF signal was measured (PerkinElmer Envision), the signal ratio (λem 520/λem 495) was calculated, and IC50 values were calculated from the dose-response curve.
Background: Time-resolved FRET reads energy transfer from a long-lived donor to a nearby acceptor.

We go through 14 compounds from patent US20240067662A1, “KRAS INHIBITORS” (Bristol-Myers Squibb Company, priority 2022, published 2024).

The IC50 is the point on the concentration scale where inhibition reaches its midpoint. Take `Cn1ncc2cccc(-c3ncc4c(N5CCN(C(=O)/C(F)=C/c6ccccn6)[C@@H](CC#N)C5)nc(OC[C@@]56CCCN5C[C@H](F)C6)nc4c3F)c21` [Example 51, 2-((S)-4-(8-fluoro-2-(((2R, 7aS)-2-fluorotetrahydro-1H-pyrrolizin-7a(5H)-yl)methoxy)-7-(1-methyl-1H-indazol-7-yl)pyrido[4,3-d]pyrimidin-4-yl)-1-((Z)-2-fluoro-3-(pyridin-2-yl)acryloyl)piperazin-2-yl)acetonitrile]: the IC50 turned out to be 360 nM.
The result for `C#Cc1c(F)ccc2cc(O)cc(-c3ncc4c(N5C[C@H]6CC[C@@H](C5)N6C(=O)/C(F)=C/c5nccn5C)nc(OC[C@@]56CCCN5C[C@H](F)C6)nc4c3F)c12` [Compound 5, (Z)-1-((1R, 5S)-3-(7-(8-ethynyl-7-fluoro-3-hydroxynaphthalen-1-yl)-8-fluoro-2-(((2R, 7aS)-2-fluorotetrahydro-1H-pyrrolizin-7a(5H)-yl)methoxy)pyrido[4,3-d]pyrimidin-4-yl)-3,8-diazabicyclo[3.2.1]octan-8-yl)-2-fluoro-3-(1-methyl-1H-imidazol-2-yl)prop-2-en-1-one] reads 79 nM; that for `C#Cc1c(F)ccc2cc(O)cc(-c3ncc4c(N5C[C@H]6CC[C@@H](C5)N6C(=O)/C(F)=C/c5nnc(C)s5)nc(OC[C@@]56CCCN5C[C@H](F)C6)nc4c3F)c12` [Compound 14, (Z)-1-((1R, 5S)-3-(7-(8-ethynyl-7-fluoro-3-hydroxynaphthalen-1-yl)-8-fluoro-2-(((2R, 7aS)-2-fluorotetrahydro-1H-pyrrolizin-7a(5H)-yl)methoxy)pyrido[4,3-d]pyrimidin-4-yl)-3,8-diazabicyclo[3.2.1]octan-8-yl)-2-fluoro-3-(5-methyl-1,3,4-thiadiazol-2-yl)prop-2-en-1-one], 22 nM.
Next, `C#Cc1c(F)ccc2cc(O)cc(-c3ncc4c(N5CCN(C(=O)/C(F)=C/c6ccccn6)CC5)nc(OC[C@]56CCC[C@H]5N(C)CCC6)nc4c3F)c12` [Example 59, (Z)-1-(4-(7-(8-ethynyl-7-fluoro-3-hydroxynaphthalen-1-yl)-8-fluoro-2-(((4aS, 7aR)-1-methyloctahydro-4aH-cyclopenta[b]pyridin-4a-yl)methoxy)pyrido[4,3-d]pyrimidin-4-yl)piperazin-1-yl)-2-fluoro-3-(pyridin-2-yl)prop-2-en-1-one]: 2 nM; `N#Cc1cccc2cccc(-c3ncc4c(N5CCN(C(=O)/C(F)=C/c6nccs6)CC5)nc(OC[C@@]56CCCN5C[C@H](F)C6)nc4c3F)c12` [Example 50, 8-(8-fluoro-4-(4-((Z)-2-fluoro-3-(thiazol-2-yl)acryloyl)piperazin-1-yl)-2-(((2R, 7aS)-2-fluorotetrahydro-1H-pyrrolizin-7a(5H)-yl)methoxy)pyrido[4,3-d]pyrimidin-7yl)-1-naphthonitrile]: 840 nM; `C#Cc1c(F)ccc2cc(O)cc(-c3ncc4c(N5CCN(C(=O)/C(F)=C/c6ccccn6)CC5)nc(OC[C@@H]5CCCN5CCCn5cc(CNC(=O)CCCC[C@@H]6SC[C@@H]7NC(=O)N[C@@H]76)nn5)nc4c3F)c12` [Compound 112, N-((1-(3-((S)-2-(((7-(8-ethynyl-7-fluoro-3-hydroxynaphthalen-1-yl)-8-fluoro-4-(4-((Z)-2-fluoro-3-(pyridin-2-yl)acryloyl)piperazin-1-yl)pyrido[4,3-d]pyrimidin-2-yl)oxy)methyl)pyrrolidin-1-yl)propyl)-1H-1,2,3-triazol-4-yl)methyl)-5-((3aS,4S,6aR)-2-oxohexahydro-1H-thieno[3,4-d]imidazol-4-yl)pentanamide]: under 2 nM.
Next, `C#Cc1c(F)ccc2cc(O)cc(-c3ncc4c(N5C[C@H]6CC[C@@H](C5)N6C(=O)/C(F)=C/c5ccc(Br)cn5)nc(OC[C@@]56CCCN5C[C@H](F)C6)nc4c3F)c12` [Compound 9, (Z)-3-(5-bromopyridin-2-yl)-1-((1R, 5S)-3-(7-(8-ethynyl-7-fluoro-3-hydroxynaphthalen-1-yl)-8-fluoro-2-(((2R, 7aS)-2-fluorotetrahydro-1H-pyrrolizin-7a(5H)-yl)methoxy)pyrido[4,3-d]pyrimidin-4-yl)-3,8-diazabicyclo[3.2.1]octan-8-yl)-2-fluoroprop-2-en-1-one]: 350 nM.
As to `Cn1ncc2cccc(-c3ncc4c(N5CCN(C(=O)/C(F)=C/c6nccs6)CC5)nc(OC[C@@]56CCCN5C[C@H](F)C6)nc4c3F)c21` [Example 39, (Z)-2-fluoro-1-(4-(8-fluoro-2-(((2R, 7aS)-2-fluorotetrahydro-1H-pyrrolizin-7a(5H)-yl)methoxy)-7-(I-methyl-1H-indazol-7-yl)pyrido[4,3-d]pyrimidin-4-yl)piperazin-1-yl)-3-(thiazol-2-yl)prop-2-en-1-one], the IC50 is 5100 nM.
The result for “(Z)-1-(4-(7-(2-amino-7-fluorobenzo[d]thiazol-4-yl)-8-fluoro-2-(((2R, 7aS)-2-fluorotetrahydro-1H-pyrrolizin-7a(5H)-yl)methoxy)pyrido[4,3-d]pyrimidin-4-yl)piperazin-1-yl)-2-fluoro-3-(thiazol-2-yl)prop-2-en-1-one [Example 68]” reads 220 nM; that for `C#Cc1cccc2cccc(-c3ncc4c(N5CCC6C5CCN6C(=O)/C(F)=C/c5ccccn5)nc(OC[C@@]56CCCN5C[C@H](F)C6)nc4c3F)c12` (single isomer, unassigned) [Compound 108], 4300 nM.
The result for `Cn1ncc2cccc(-c3ncc4c(N5CCN(C(=O)/C(F)=C/c6nccs6)[C@@H](CC#N)C5)nc(OC[C@@]56CCCN5C[C@H](F)C6)nc4c3F)c21` [Example 52, 2-((S)-4-(8-fluoro-2-(((2R, 7aS)-2-fluorotetrahydro-1H-pyrrolizin-7a(5H)-yl)methoxy)-7-(1-methyl-1H-indazol-7-yl)pyrido[4,3-d]pyrimidin-4-yl)-1-((Z)-2-fluoro-3-(thiazol-2-yl)acryloyl)piperazin-2-yl)acetonitrile] reads 430 nM; that for `C#Cc1c(F)ccc2cc(O)cc(-c3ncc4c(N5CCN(C(=O)/C(F)=C/c6ncccn6)CC5)nc(OC[C@@]56CCCN5C[C@H](F)C6)nc4c3F)c12` [Example 57, (Z)-1-(4-(7-(8-ethynyl-7-fluoro-3-hydroxynaphthalen-1-yl)-8-fluoro-2-(((2R, 7aS)-2-fluorotetrahydro-1H-pyrrolizin-7a(5H)-yl)methoxy)pyrido[4,3-d]pyrimidin-4-yl)piperazin-1-yl)-2-fluoro-3-(pyrimidin-2-yl)prop-2-en-1-one], 4 nM; that for `CN1CCC[C@H]1COc1nc(N2CCN(C(=O)/C(F)=C/c3ncccn3)[C@@H](CC#N)C2)c2cnc(-c3cccc4cccc(Cl)c34)c(F)c2n1` [Compound 20, 2-((S)-4-(7-(8-chloronaphthalen-1-yl)-8-fluoro-2-(((S)-1-methylpyrrolidin-2-yl)methoxy)pyrido[4,3-d]pyrimidin-4-yl)-1-((Z)-2-fluoro-3-(pyrimidin-2-yl)acryloyl)piperazin-2-yl)acetonitrile], 89 nM.
Next, `CN1CCC[C@H]1COc1nc(N2CCN(C(=O)/C(F)=C/c3ccccn3)[C@@H](CC#N)C2)c2cnc(-c3cccc4cccc(Cl)c34)c(F)c2n1` [Compound 19A, 2-((S)-4-(7-(8-chloronaphthalen-1-yl)-8-fluoro-2-(((S)-1-methylpyrrolidin-2-yl)methoxy)pyrido[4,3-d]pyrimidin-4-yl)-1-((Z)-2-fluoro-3-(pyridin-2-yl)acryloyl)piperazin-2-yl)acetonitrile]: 59 nM.
